Source: US9439916B2, “Composition for decelerating the aging in the organism and for extending the life time thereof and the use of said composition” (MITOTECH SA, priority 2007, dated 2016)

Tests used:
Assay type in all cases: in vivo
SHR mice = assay: Life span of outbred SHR mice receiving SkQ1 with drinking water; settings: for animals remained alive in 707 days of the experiment: SHR mice, SkQ1 with drinking water lifelong, control 8%
Description: (§1) An experiment with outbred SHR mice was carried out. The mice were divided into four groups (25 animals per each group). The three groups received a certain amount of SkQ1 with drinking water throughout their lives, and the fourth (control) group received water without SkQ1. Dose of SkQ1 is given in nanomoles per kg of animal weight per day.
(V. N. Anisimov, I. N. Alimova, D. A. Baturin, I. G. Popovich, M. A. Zabezhinski, S. V. Rosenfeld, K. G. Manton, A. V. Semenchenko, A. I. Yashin (2003) Dose-dependent effect of melatonin on life span and spontaneous tumor incidence in female SHR mice. Exp Gerontol. 38, 449-461).

female SHR mice = assay: Age-related changes in estrous function of female SHR mice
Description: as §1
With increasing the duration of the observation period, tendency of decelerating age-related disorders in estrous function in experimental animals becomes more pronounced, which were expressed as increase in the duration of cycle and lowering the frequency of regular cycles. For example, in the 2nd cohort in 15-month-old experimental animals received SkQ1 at a dose of 0.01 nanomoles per day, the frequency of regular cycles was 94%, whereas in the control—67%.

Drosophila melanogaster = assay: Life span of fruit flies, line w1118, fed SkQ1
Description: Isogenous laboratory Drosophila line w^1118 in which all individuals have the same genotype was chosen for the experiments, thus eliminating the influence of genetic differences between individuals on the results of experiments. The mitochondria-targeted antioxidant SkQ1 at a concentration of 1.85 nM was tested. Stock SkQ solution was diluted in distilled water. Adult flies were administered the compound throughout their lives. Since adult flies can feed on food located on the surface, it was decided to spread the SkQ1 solution of a corresponding concentration on the surface of freshly prepared medium poured into test tubes containing the flies. Virgin females and males of line w^1118 selected during the day were placed in tubes, each tube contained five individuals (males and females separately), in standard medium. In control tubes, 100 μl of distilled water without SkQ was spread on standard medium surface; in test tubes, 100 μl of the test compound at a selected concentration was spread on standard medium surface. The number of live flies in each tube was recorded daily, once a week flies were transferred to a corresponding fresh medium. All tubes were incubated at 25° C. In each experiment, 100 individuals (20 tubes) were analyzed.

p53 (-/-) mice = assay: Life span of p53 gene knockout mice; settings: 0.1 nmoles per mouse per day (5 nM/kg/day) with drinking water
From the text: Mice lacking the p53 gene (p53−/−) can not synthesize the p53 protein, so-called “guardian of the genome”, and can serve as a model of accelerated ageing and death of the organism caused by cancer [for more details, see A. A. Sablina, A. V. Budanov, G. V. Ilyinskaya, L. S. Agapova, J. E. Kravchenko, P. M. Chumakov (2005) The antioxidant function of the p53 tumor suppressor //Nature Med., 11, 1306-1313)].
Based on the previously conducted PCR analysis detecting p53−/−, p53+/− and p53+/+ mice in the progeny of heterozygous (p53+/−) animals, the two groups of mice were drawn up which received: • clean drinking water; • water supplemented with SkQ1 (0.1 nmoles of the preparation per mouse per day (5 nM/kg/day)).

[1] = system: cat with senile generalized progressive retinal dystrophy; assay: Veterinary clinical trial, senile blindness in a cat; settings: 15 years, daily instillation of 250 nM SkQ1 solution, pH 6.5
Description: A) Patient—cat, breed—European Shorthair, age—15 years. Diagnosis—retinitis, papillitis, senile generalized progressive retinal dystrophy. Clinical signs—depigmentation of t. lucidum, the optic disk (OD) is violet. Retinal detachment. Vision is absent.
Treatment—daily instillation of 250 nM SkQ1 solution (in physiological solution at pH 6.5).

[2] = system: horse with senile blindness; assay: Veterinary clinical trial, senile blindness in a horse
From the text: B) Patient—horse, gelding, not thoroughbred, age—20 years. Diagnosis—senile blindness associated with degeneration of the retina and its vessels. Clinical signs—shortening and thinning of retinal vessels emanating from the optic disk, depigmentation of t. lucidum t. nigrum, thinning of the retina over the entire surface of eye fundus. As a result, Choroid blood vessels in the form of straight lines are well visualized, posterior polar senile cataract is detected. The animal cannot see during the last eight months.
Treatment—daily instillation of 250 nM SkQ1 solution (in physiological solution at pH 6.5), and since the 3rd month of treatment—2 times a day.

OXYS rats [3] = assay: Bone tissue state by X-ray densitometry (osteoporosis); settings: two 45-day courses of 50 nanomoles per kg per day, studied at 6 months
Description: Experiments were conducted on the two lines of rats—Wistar and OXYS. Genetically determined metabolic defect, manifesting itself as decreased resistance of OXYS rats towards oxidative stress, leads to changes in their organism which may be regarded as accelerated ageing syndrome. In particular, reduced bone mineral density in OXYS rats, as compared to Wistar rats, is observed. Such changes are also observed in osteoporosis in humans that allows us to consider these animals as an adequate model of senile osteoporosis in humans.
Wistar and OXYS rats,—control rats and those who received two courses of SkQ1 (50 nanomoles per kg of body weight per day), were studied. The animals received the preparation since 1.5 and 4 months of age for 45 days. At the age of 6 months, bone tissue state was studied by X-ray densitometry.

OXYS male rats = assay: Sexual motivation model: male near receptive female behind a barrier; settings: one year old OXYS males
From the text: […] To do this, an experimental model of sexual arousal was used—males were kept under conditions allowing them to see the receptive female, perceive the female's smell, but excluding physical contact with the female. Under these conditions, male rats and male mice show increase in blood testosterone level and typical motivational behavior.

OXYS rats [4] = assay: Morris water maze test of learning ability; settings: 16-month-old OXYS rats, 250 nanomoles per kg of body weight since 1.5 months
From the text: The Morris water maze test is actively used for studies on learning and long-term spatial memory in animals. The method of Morris allows to evaluate strategies for behavior, dynamics of skill formation, to detect even weak differences in behavior. This test evaluates the ability of an animal, swimming in the opaque water of the pool and looking at the signs on its sides, to learn how to find the invisible, hidden platform under water, no matter from what point of the perimeter of the pool the animal was released.
In subsequent experiments, 4 groups of 16-month-old animals: control Wistar and OXYS rats, and groups received the preparation since 1.5 months at a dose of 250 nanomoles per kg of body weight, were used. A latent period of time spent by rats to find the platform depended only on the genotype—it took longer in OXYS rats than in Wistar rats—OXYS rats coped worse with the task.

rats = assay: Behavioral tests "open field" and "elevated cruciform maze"

## CC1=C(C)C(=O)C(CCCCCCCCCC[P+](c2ccccc2)(c2ccccc2)c2ccccc2)=CC1=O [SkQ1]
SHR mice; first of three test groups (dose not given)
  animals remained alive in 707 days of the experiment: 36%
SHR mice; second of three test groups (dose not given)
  animals remained alive in 707 days of the experiment: 28%
SHR mice; third of three test groups (dose not given)
  animals remained alive in 707 days of the experiment: 24%
SHR mice; optimal doses (1 nanomole per animal per day), versus control
  life span of SHR mice: much longer life span
Female SHR mice; 2nd cohort, 15-month-old female SHR mice, 0.01 nanomoles per day, control 67%
  frequency of regular estrous cycles: 94%
Female SHR mice; female SHR mice received SkQ1, compared to the control group
  age-related changes in estrous function: less pronounced age-related changes in estrous function
Drosophila melanogaster; 1.85 nM SkQ1, control 0.18, P=0.0056
  fraction of individuals aged 70 days and older: 0.48
Drosophila melanogaster; 1.85 nM SkQ1 on medium surface, 25° C., control 58 days, P=0.0012
  average life expectancy: 66 days
p53 (-/-) mice
  life span of p53 (-/-) mice: dramatic increase of the life span
[1]
  vision after 10 days of the treatment: the pupil began to respond to light, the cat began to play with the ball and see even small objects
  vision after 21 days of the treatment: vision retained
[2]; 20 years, instillation of 250 nM SkQ1 solution daily, 2 times a day since 3rd month
  vision after 90 days of the treatment: The vision was restored
[2]; after 90 days of the treatment with 250 nM SkQ1 instillation
  growth of new blood vessels from the optic disk: 40
OXYS rats [3]
  bone mineral density of femur and tibia: reliably increased
  total mass of bone tissue: reliably increased
OXYS male rats; 50 nanomoles of SkQ1, versus control males
  time spent by a male rat near a female rat separated by a barrier: reliably increased
OXYS male rats; 250 nanomoles of SkQ1, versus control males
  time spent by a male rat near a female rat separated by a barrier: reliably increased
OXYS rats [4]
  ability to learn (latent period to find the platform in the Morris maze): improved the ability of OXYS rats to learn
rats; Wistar rats
  stress-protective effect: clear stress-protective effect
rats; open field and elevated cruciform maze
  search and exploratory activity of rats: positive effect
